Our source for the Activity values is ChEMBL document CHEMBL1130300, “Antiinflammatory effects of escins Ia, Ib, IIa, and IIb from horse chestnut, the seeds of Aesculus hippocastanum L” (Bioorg Med Chem Lett, 1997).

Common to all, as to format: functional, organism-based
The test system of test [1] is Rattus norvegicus. Put plainly: Compound was tested for dose-dependent inhibition in increase of vascular permeability induced by intracutaneous injection of serotonin in rat at 200 mg/kg, p.o.; NI means No inhibition. On the set-up: dose 200 mg/kg.
For test [2], the system named is Rattus norvegicus. Kind of test: Compound was tested for dose-dependent inhibition in increase of vascular permeability induced by intracutaneous injection of serotonin in rat at 50-200 mg/kg, p.o; Inhibited.
Test [3] has as its system Rattus norvegicus. Put plainly: Compound at 50-200 mg/kg, p.o, dose-dependently inhibited the increase of vascular permeability induced by intracutaneous injection of histamine in rat; inhibited.
Test [4] deals with Mus musculus. Kind of test: Compound at 25-200 mg/kg, p.o., dose-dependently inhibited the scratching behavior induced by subcutaneous injection […]; inhibited.
The test system of test [5] is Rattus norvegicus. Kind of test: Compound at 200 mg/kg peroral dose in rat showed tendency to inhibit the second phase; inhibited. On the set-up: dose 200 mg/kg.
For test [6], the system named is Rattus norvegicus. Kind of test: Compound at 200 mg/kg, p.o., also significantly inhibited the hind paw edema induced by carrageenan at first phase in rat; inhibited. Further details: dose 200 mg/kg.
The test system of test [7] is Mus musculus. Put plainly: Compound at 50-200 mg/kg, p.o, dose-dependently inhibited the increase of vascular permeability induced by intraperitoneal injection of acetic acid in mice; inhibited.
Test [8] has as its system Rattus norvegicus. Kind of test: Compound at 200 mg/kg peroral dose in rat showed significant suppression at second phase; suppressed. On the set-up: dose 200 mg/kg.

Activity calls are given as the source filed them. The rule behind the calls is not given here.

Take `CC1(C)CC2C3=CCC4[C@@]5(C)CC[C@H](O[C@@H]6O[C@H](C(=O)O)[C@@H](O[C@@H]7O[C@H](CO)[C@@H](O)[C@H](O)[C@H]7O)[C@H](O)[C@H]6O[C@@H]6O[C@H](CO)[C@@H](O)[C@H](O)[C@H]6O)[C@](C)(CO)C5CC[C@@]4(C)[C@]3(C)C[C@@H](O)[C@@]2(CO)[C@@H](O)[C@@H]1O` (stereo not given in full): the result in test [1] was inactive.

Consider `C/C=C(\C)C(=O)O[C@H]1[C@H](OC(C)=O)[C@@]2(CO)C(CC1(C)C)C1=CCC3[C@@]4(C)CC[C@H](O[C@@H]5O[C@H](C(=O)O)[C@@H](O[C@@H]6O[C@H](CO)[C@@H](O)[C@H](O)[C@H]6O)[C@H](O)[C@H]5O[C@@H]5OC[C@@H](O)[C@H](O)[C@H]5O)[C@](C)(CO)C4CC[C@@]3(C)[C@]1(C)C[C@H]2O` (stereo not given in full), for which the Activity entry in test [2], in test [3], in test [4], in test [5], in test [6] and in test [7] was “inhibited” throughout.

In the case of `C/C=C(\C)C(=O)O[C@H]1[C@H](OC(C)=O)[C@@]2(CO)C(CC1(C)C)C1=CCC3[C@@]4(C)CC[C@H](O[C@@H]5O[C@H](C(=O)O)[C@@H](O[C@@H]6O[C@H](CO)[C@@H](O)[C@H](O)[C@H]6O)[C@H](O)[C@H]5O[C@@H]5O[C@H](CO)[C@@H](O)[C@H](O)[C@H]5O)[C@](C)(CO)C4CC[C@@]3(C)[C@]1(C)C[C@H]2O` (stereo not given in full), the Activity result in test [8], in test [2], in test [3], in test [4], in test [6] and in test [7] was “inhibited” in each case.

With `C/C=C(/C)C(=O)O[C@H]1[C@H](OC(C)=O)[C@@]2(CO)C(CC1(C)C)C1=CCC3[C@@]4(C)CC[C@H](O[C@@H]5O[C@H](C(=O)O)[C@@H](O[C@@H]6O[C@H](CO)[C@@H](O)[C@H](O)[C@H]6O)[C@H](O)[C@H]5O[C@@H]5OC[C@@H](O)[C@H](O)[C@H]5O)[C@](C)(CO)C4CC[C@@]3(C)[C@]1(C)C[C@H]2O` (stereo not given in full), the Activity entry in test [2], in test [3], in test [4], in test [5], in test [6] and in test [7] was “inhibited” each time.

With `CC1(C)CC2C3=CCC4[C@@]5(C)CC[C@H](O[C@@H]6O[C@H](C(=O)O)[C@@H](O[C@@H]7O[C@H](CO)[C@@H](O)[C@H](O)[C@H]7O)[C@H](O)[C@H]6O[C@@H]6OC[C@@H](O)[C@H](O)[C@H]6O)[C@](C)(CO)C5CC[C@@]4(C)[C@]3(C)C[C@@H](O)[C@@]2(CO)[C@@H](O)[C@@H]1O` (stereo not given in full), the outcome in test [1] was inactive.
